Measurements taken from ChEMBL document CHEMBL1201862, “PubChem BioAssay data set” (2004).
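Protocol summary: plate cells (96-well), add compound at 5 concentrations, incubate 48 h, interpolate endpoints linearly. GI50 is the concentration that inhibits growth by half.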 Calls of active or inactive are those of the source. Rule as the data show it: active = GI50 up to about 1.1 µM and inactive = higher.

Tests used:
Experiment in all cases: DTP human tumour cell line panel, 48 h
[1] = tested on: ACHN
[2] = tested on: SK-MEL-5
[3] = tested on: UACC-257
[4] = tested on: COLO 205
[5] = tested on: MOLT-4
[6] = tested on: RXF 393
[7] = tested on: SK-MEL-28
[8] = tested on: MDA-MB-435
[9] = tested on: KM12
[10] = tested on: T47D
[11] = tested on: HOP-92
[12] = tested on: Hs-578T
[13] = tested on: OVCAR-3
[14] = tested on: EKVX
[15] = tested on: HOP-62
[16] = tested on: SK-OV-3
[17] = tested on: K562
[18] = tested on: OVCAR-5
[19] = tested on: HCT-15
[20] = tested on: MCF7
[21] = tested on: SW-620
[22] = tested on: U-251
[23] = tested on: NCI/ADR-RES
[24] = tested on: NCI-H23
[25] = tested on: BT-549
[26] = tested on: MDA-MB-231
[27] = tested on: TK-10
[28] = tested on: SF-539
[29] = tested on: Malme-3M
[30] = tested on: UACC-62
[31] = tested on: NCI-H522
[32] = tested on: DU-145
[33] = tested on: HCT-116
[34] = tested on: NCI-H226
[35] = tested on: SR
[36] = tested on: 786-0
[37] = tested on: SF-295
[38] = tested on: UO-31
[39] = tested on: MDA-N
[40] = tested on: M14
[41] = tested on: PC-3
[42] = tested on: SNB-19
[43] = tested on: CAKI-1
[44] = tested on: OVCAR-8
[45] = tested on: HCC 2998
[46] = tested on: HT-29
[47] = tested on: SK-MEL-2
[48] = tested on: RPMI-8226
[49] = tested on: A549
[50] = tested on: SF-268
[51] = tested on: SN12C
[52] = tested on: NCI-H460
[53] = tested on: IGROV-1
[54] = tested on: SNB-75
[55] = tested on: OVCAR-4
[56] = tested on: CCRF-CEM
[57] = tested on: HL-60
[58] = tested on: A498
[59] = tested on: LOX IMVI

Measured: GI50

CCOC(=O)[C@@H]1C[C@H]1c1ccc(O)c(O)c1
inactive: [1] 65.2 µM | [2] 16.6 µM | [3] 19.9 µM | [4] 57.8 µM | [5] 18.5 µM | [6] 26.6 µM | [7] 25.4 µM | [8] 10.2 µM | [9] > 100 µM | [10] 30.1 µM | [11] > 100 µM | [12] 28.4 µM | [13] 29 µM | [14] > 100 µM | [15] 84.9 µM | [16] 43.1 µM | [17] 10.9 µM | [18] > 100 µM | [20] 43.9 µM | [21] 18.6 µM | [22] 69.7 µM | [23] 43.3 µM | [24] 4.74 µM | [25] 43.4 µM | [26] 23.2 µM | [27] 20.7 µM | [28] 91 µM | [29] 31.8 µM | [30] 17.1 µM | [31] 16.4 µM | [32] 10.1 µM | [33] 14.4 µM | [34] 70.6 µM | [35] 45.3 µM | [36] 41.4 µM | [37] > 100 µM | [38] 31.3 µM | [39] 12.7 µM | [40] 34.8 µM | [41] 14.6 µM | [42] > 100 µM | [43] 29.7 µM | [44] 37.9 µM | [45] 31.6 µM | [46] 55.5 µM | [47] 18.2 µM | [48] 30.9 µM | [49] 41.3 µM | [50] 67.6 µM | [51] 75.5 µM | [52] 58.2 µM | [53] 24.4 µM
33.6 µM: [19]

COc1ccc(/C=C2\Oc3cc(OC(C)=O)ccc3C2=O)cc1
94.4 µM: [19]
inactive: [1] > 100 µM | [2] > 100 µM | [3] > 100 µM | [4] > 100 µM | [5] > 100 µM | [6] > 100 µM | [7] > 100 µM | [8] > 100 µM | [9] > 100 µM | [10] > 100 µM | [12] > 100 µM | [13] > 100 µM | [14] > 100 µM | [15] > 100 µM | [16] > 100 µM | [17] 78.2 µM | [20] > 100 µM | [21] > 100 µM | [22] > 100 µM | [23] > 100 µM | [24] > 100 µM | [25] > 100 µM | [26] > 100 µM | [27] > 100 µM | [28] > 100 µM | [30] > 100 µM | [31] 19 µM | [32] > 100 µM | [33] > 100 µM | [34] > 100 µM | [35] 60.8 µM | [36] > 100 µM | [37] > 100 µM | [38] > 100 µM | [54] > 100 µM | [39] 76.2 µM | [40] > 100 µM | [41] > 100 µM | [42] > 100 µM | [55] > 100 µM | [43] 21.1 µM | [44] > 100 µM | [45] > 100 µM | [56] 73.6 µM | [48] 57.3 µM | [49] > 100 µM | [50] > 100 µM | [51] > 100 µM | [57] 94 µM | [52] > 100 µM | [53] > 100 µM

COc1cc2c(cc1OCCCCOc1cc3c(cc1OC)C(=O)N1CCC[C@H]1C(=O)N3)N=C[C@@H]1CCCN1C2=O
inactive: [1] 14.7 µM | [2] 4 µM | [3] 14.9 µM | [4] 2.55 µM | [5] 2.27 µM | [6] 3.59 µM | [7] 14.3 µM | [8] 4.2 µM | [9] 5.02 µM | [10] 5.52 µM | [12] 10.3 µM | [13] 11.5 µM | [14] 12.5 µM | [15] 10.9 µM | [58] 6.71 µM | [17] 2.28 µM | [18] 13.1 µM | [20] 2.72 µM | [21] 3.29 µM | [59] 1.99 µM | [22] 3.93 µM | [23] 13.4 µM | [24] 12.8 µM | [25] 4.44 µM | [26] 3.11 µM | [27] 12.9 µM | [29] 9.79 µM | [30] 3.35 µM | [31] 1.12 µM | [32] 17.2 µM | [33] 16.8 µM | [34] 13.5 µM | [35] 2.17 µM | [36] 13.2 µM | [37] 12.5 µM | [38] 14.8 µM | [54] 4.12 µM | [39] 7.28 µM | [40] 12.9 µM | [41] 6.05 µM | [42] 8.18 µM | [55] 13.1 µM | [43] 11.6 µM | [44] 14.7 µM | [45] 11.7 µM | [46] 16.6 µM | [47] 5.57 µM | [48] 1.57 µM | [49] 18.3 µM | [50] 3.82 µM | [51] 9.75 µM | [57] 9.18 µM | [52] 15.8 µM | [53] 8.57 µM
12.2 µM: [19]
